Reference: article PMC6445168, “Design, synthesis and antimalarial activity of novel bis{N-[(pyrrolo[1,2-a]quinoxalin-4-yl)benzyl]-3-aminopropyl}amine derivatives” (Journal of Enzyme Inhibition and Medicinal Chemistry, 2017)

What was measured:
[1] = tested on: P. falciparum CQ-sensitive strain 3D7; experiment: In vitro antiplasmodial activity, SYBR Green I fluorescence-based method, 3D7 strain; format: cell-based, Plasmodium falciparum; conditions: for IC50: Plasmodium falciparum, 3D7, 48 h, chloroquine-sensitive strain 3D7, 48 h incubation, read-out: P. falciparum strains IC50 values, 3D7; for Selectivity Index HepG2/3D7: ratio CC50 HepG2 / IC50 3D7
Protocol: (§1) The in vitro antiplasmodial activities were tested over concentrations ranging from 39 nM to 40 μM against culture-adapted Plasmodium falciparum reference strains 3D7 and W2. […] The parasites were cultivated in RPMI medium (Sigma-Aldrich, Lyon, France) supplemented with 0.5% Albumax I (Life Technologies corporation, Paisley, United Kingdom), hypoxanthine (Sigma-Aldrich), gentamicin (Sigma-Aldrich), and human erythrocytes and were incubated at 37 °C in a candle jar, as described previously. The P. falciparum drug susceptibility test was carried out in 96-well flat bottom sterile plates under a final volume of 250 μL. After a 48 h incubation with the drugs, quantities of DNA in treated and control cultures of parasites in human erythrocytes were compared according to the SYBR Green I (Sigma-Aldrich) fluorescence-based method[38]^,[39]. Briefly, after incubation, plates were frozen at -20 °C until use. They were then left to thaw for 2 h at room temperature and 100 μL of the homogenized culture were transferred to 96-well flat bottom sterile black plates (Nunc Inc) already containing 100 μL of the SYBR Green I lysis buffer (2xSYBR Green, 20 mM Tris base pH 7.5, 5 mM EDTA, 0.008% w/v saponin, 0.08% w/v Triton X-100). […] Plates were incubated for 1 h at room temperature and then read on a fluorescence plate reader (Tecan, Austria) using excitation and emission wavelengths of 485 and 535 nm, respectively.

[2] = tested on: P. falciparum CQ-resistant strain W2; experiment: In vitro antiplasmodial activity, SYBR Green I fluorescence-based method, W2 strain; format: cell-based, Plasmodium falciparum; conditions: for IC50: Plasmodium falciparum, chloroquine-resistant strain W2, 48 h incubation, read-out: P. falciparum strains IC50 values, W2; for Selectivity Index HepG2/W2: ratio CC50 HepG2 / IC50 W2
Protocol: as §1

[3] = Cytotoxicity evaluation, MTT assay; format: cell-based, human; conditions: human, HepG2 cells (hepatocarcinoma cell line, ATCC HB-8065); HepG2, 72 h incubation, mean ± SD of three independent experiments
Protocol: These assays were performed toward the human HepG2 cell line (HepG2 CC50). […] These cells express many of the hepatocyte-specific metabolic enzymes, thus enabling the cytotoxicity of tested product metabolites to be evaluated. […] Duplicate assays were performed for each sample. Each plate-well was then microscope-examined for detecting possible precipitate formation before the medium was aspirated from the wells. 100 μL of MTT solution (0.5 mg/mL in medium without FCS) were then added to each well. […] After this time, the MTT solution was removed and DMSO (100 μL) was added to dissolve the resulting blue formazan crystals. Plates were shaken vigorously (300 rpm) for 5 minutes. The absorbance was measured at 570 nm with 630 nm as reference wavelength spectrophotometer using a BIO-TEK ELx808 Absorbance Microplate Reader. DMSO was used as blank and doxorubicin (Sigma Aldrich) as positive control. Cell viability was calculated as percentage of control (cells incubated without compound). The 50% cytotoxic concentration was determined from the dose-response curve by using the TableCurve 2D V5.0 software (Systat Software, San Jose, CA).

[4] = tested on: L. donovani (MHOM/IN/00/DEVI) promastigotes; experiment: In vitro antileishmanial activity on promastigotes, MTT assay; format: cell-based; conditions: Leishmania donovani, 72 h incubation, mean ± SD of three independent experiments
Protocol: L. donovani (MHOM/IN/00/DEVI) used in this study was provided by the CNR Leishmania (Montpellier, France). The effects of the tested compounds on the growth of L. donovani (MHOM/IN/00/DEVI)promastigotes were assessed by MTT assay[41] .Briefly, promastigotes in log-phase in Schneider′s medium supplemented with 20% fetal calf serum (FCS), 2 mM L-glutamine and antibiotics (100 U/mL penicillin and 100 μg/mL streptomycin), were incubated at an average density of 10^6 parasites/mL in sterile 96-well plates with various concentrations of compounds dissolved in DMSO (final concentration less than 0.5% v/v), in duplicate. Appropriate controls treated by DMSO and pentamidine or amphotericin B (reference drugs purchased from Sigma-Aldrich) were added to each set of experiments. After a 72 h incubation period at 27 °C, parasite metabolic activity was determined. Each plate-well was then microscope-examined for detecting possible precipitate formation. 20 μL of MTT 3–(4,5-dimethylthiazol-2-yl)-2,5-diphenyltetrazolium bromide) solution (5 mg/mL) were added to each well followed by incubation for another 4 h. The enzyme reaction was then stopped by addition of 100 μL of 50% isopropanol – 10% sodium dodecyl sulfate[42] .Plates were shaken vigorously (300 rpm) for 10 minutes and the absorbance measured in a plate reader at 570 nm in a BIO-TEK ELx808 Absorbance Microplate Reader. […] IC50 were calculated by non-linear regression analysis processed on doseresponse curves, using TableCurve 2D V5.0 software. IC50 values represent the mean value calculated from three independent experiments.

SMILES | IC50 [1] | IC50 [2] | IC50 [4] | Selectivity Index HepG2/3D7 [1] | Selectivity Index HepG2/W2 [2] | CC50 at 72 h [3]
CCOc1ccn2c1c(-c1ccc(CNCCCN3CCN(CCCNCc4ccc(-c5nc6ccccc6n6ccc(OCC)c56)cc4)CC3)cc1)nc1ccccc12 [1k, Bis{N-[4–(3-ethoxypyrrolo[1,2-a]quinoxalin-4-yl)benzyl]-3-aminopropyl}piperazine] | 190 ± 10 nM | 90 ± 10 nM | ≥ 10000 nM | 7.79 | 16.44 | 1480 ± 500 nM
c1ccc(-c2cc3c(-c4ccc(CNCCCN5CCN(CCCNCc6ccc(-c7nc8ccccc8n8cc(-c9ccccc9)cc78)cc6)CC5)cc4)nc4ccccc4n3c2)cc1 [1l, Bis{N-[4–(2-phenylpyrrolo[1,2-a]quinoxalin-4-yl)benzyl]-3-aminopropyl}piperazine] | 8960 ± 690 nM | 1390 ± 130 nM | – | – | – | –
c1cc(CNCCCN2CCN(CCCNCc3cccc(-c4nc5ccccc5n5cccc45)c3)CC2)cc(-c2nc3ccccc3n3cccc23)c1 [1n, Bis{N-[3-(pyrrolo[1,2-a]quinoxalin-4-yl)benzyl]-3-aminopropyl}piperazine] | 370 ± 40 nM | 50 ± 10 nM | 3710 ± 400 nM | 5.49 | 40.6 | 2030 ± 1200 nM
COc1ccc2nc(-c3cccc(CNCCCN4CCN(CCCNCc5cccc(-c6nc7ccc(OC)cc7n7cccc67)c5)CC4)c3)c3cccn3c2c1 [1p, Bis{N-[3–(8-methoxypyrrolo[1,2-a]quinoxalin-4-yl)benzyl]-3-aminopropyl}piperazine] | 40 ± 4 nM | 170 ± 30 nM | 3390 ± 400 nM | 39.25 | 9.23 | 1570 ± 800 nM
c1ccc2c(c1)cc1c(-c3ccc(CNCCCN4CCN(CCCNCc5ccc(-c6nc7ccccc7n7c6cc6ccccc67)cc5)CC4)cc3)nc3ccccc3n12 [1q, Bis{N-[4-(indolo[1,2-a]quinoxalin-6-yl)benzyl]-3-aminopropyl}piperazine] | 1000 ± 50 nM | – | 570 ± 100 nM | – | – | 1560 ± 700 nM
c1ccc(-c2nc3ccccc3n3cc(CNCCCN4CCN(CCCNCc5cc6c(-c7ccccc7)nc7ccccc7n6c5)CC4)cc23)cc1 [1r, Bis{N-[(4-phenylpyrrolo[1,2-a]quinoxalin-2-yl)methyl]-3-aminopropyl}piperazine] | 7220 ± 770 nM | 750 ± 100 nM | – | – | – | –
C[C@@H]1[C@H](O)[C@@H](C)/C=C/C=C/C=C/C=C/C=C/C=C/C=C/[C@H](O[C@@H]2O[C@H](C)[C@@H](O)[C@H](N)[C@@H]2O)C[C@@H]2O[C@](O)(C[C@@H](O)C[C@@H](O)[C@H](O)CC[C@@H](O)C[C@@H](O)CC(=O)O[C@H]1C)C[C@H](O)[C@H]2C(=O)O [Amphotericin B, reference compound] | – | – | 100 ± 40 nM | – | – | –

More lines, main results first:

IC50 [1] | IC50 [2] | IC50 [4] | SMILES | Selectivity Index HepG2/3D7 [1] | Selectivity Index HepG2/W2 [2] | CC50 at 72 h [3]
3420 ± 540 nM | 850 ± 150 nM | 1000 ± 200 nM | c1ccc2c(c1)nc(-c1ccc(CNCCCNCCCNCc3ccc(-c4nc5ccccc5n5cccc45)cc3)cc1)c1cccn12 [1a, Bis{N-[4-(pyrrolo[1,2-a]quinoxalin-4-yl)benzyl]-3-aminopropyl}amine] | 0.53 | 2.13 | 1810 ± 100 nM
1200 ± 200 nM | 4200 ± 650 nM | – | CN(CCCNCc1ccc(-c2nc3ccccc3n3cccc23)cc1)CCCNCc1ccc(-c2nc3ccccc3n3cccc23)cc1 [1b, Bis{N-[4-(pyrrolo[1,2-a]quinoxalin-4-yl)benzyl]-3-aminopropyl}methylamine] | 1.30 | 0.37 | 1560 ± 600 nM
800 ± 120 nM | 3400 ± 740 nM | 1140 ± 200 nM | c1ccc2c(c1)nc(-c1ccc(CNCCCN3CCN(CCCNCc4ccc(-c5nc6ccccc6n6cccc56)cc4)CC3)cc1)c1cccn12 [1c, Bis{N-[4-(pyrrolo[1,2-a]quinoxalin-4-yl)benzyl]-3-aminopropyl}piperazine] | 1.56 | 0.37 | 1250 ± 300 nM
4140 ± 30 nM | 340 ± 40 nM | 3890 ± 300 nM | COc1ccc2c(c1)nc(-c1ccc(CNCCCN(C)CCCNCc3ccc(-c4nc5cc(OC)ccc5n5cccc45)cc3)cc1)c1cccn12 [1d, Bis{N-[4–(7-methoxypyrrolo[1,2-a]quinoxalin-4-yl)benzyl]-3-aminopropyl}methylamine] | 0.62 | 7.56 | 2570 ± 700 nM
5850 ± 70 nM | 130 ± 10 nM | 4250 ± 200 nM | COc1ccc2nc(-c3ccc(CNCCCN(C)CCCNCc4ccc(-c5nc6ccc(OC)cc6n6cccc56)cc4)cc3)c3cccn3c2c1 [1f, Bis{N-[4–(8-methoxypyrrolo[1,2-a]quinoxalin-4-yl)benzyl]-3-aminopropyl}methylamine] | 0.58 | 26 | 3380 ± 900 nM
2220 ± 250 nM | 360 ± 40 nM | 1070 ± 100 nM | COc1ccc2nc(-c3ccc(CNCCCN4CCN(CCCNCc5ccc(-c6nc7ccc(OC)cc7n7cccc67)cc5)CC4)cc3)c3cccn3c2c1 [1g, Bis{N-[4–(8-methoxypyrrolo[1,2-a]quinoxalin-4-yl)benzyl]-3-aminopropyl}piperazine] | 0.96 | 5.94 | 2140 ± 1400 nM
250 ± 40 nM | 440 ± 110 nM | 2070 ± 20 nM | COc1cccc2nc(-c3ccc(CNCCCN(C)CCCNCc4ccc(-c5nc6cccc(OC)c6n6cccc56)cc4)cc3)c3cccn3c12 [1h, Bis{N-[4–(9-methoxypyrrolo[1,2-a]quinoxalin-4-yl)benzyl]-3-aminopropyl}methylamine] | 9.76 | 5.54 | 2440 ± 400 nM
260 ± 30 nM | 490 ± 160 nM | 4260 ± 100 nM | CCOc1ccn2c1c(-c1ccc(CNCCCN(C)CCCNCc3ccc(-c4nc5ccccc5n5ccc(OCC)c45)cc3)cc1)nc1ccccc12 [1j, Bis{N-[4–(3-ethoxypyrrolo[1,2-a]quinoxalin-4-yl)benzyl]-3-aminopropyl}methylamine] | 7.50 | 3.98 | 1950 ± 300 nM
1070 ± 160 nM | 120 ± 10 nM | 2800 ± 100 nM | CN(CCCNCc1cccc(-c2nc3ccccc3n3cccc23)c1)CCCNCc1cccc(-c2nc3ccccc3n3cccc23)c1 [1m, Bis{N-[3-(pyrrolo[1,2-a]quinoxalin-4-yl)benzyl]-3-aminopropyl}methylamine] | 1.81 | 16.17 | 1940 ± 1000 nM
180 ± 20 nM | 206 ± 30 nM | 3510 ± 100 nM | COc1ccc2nc(-c3cccc(CNCCCN(C)CCCNCc4cccc(-c5nc6ccc(OC)cc6n6cccc56)c4)c3)c3cccn3c2c1 [1o, Bis{N-[3–(8-methoxypyrrolo[1,2-a]quinoxalin-4-yl)benzyl]-3-aminopropyl}methylamine] | 8.33 | 7.28 | 1500 ± 900 nM
